# Experimental data from patent US11395479B2, “Method to reduce microbial bloom in poultry hatchery” (Novozymes A/S, priority 2016, dated 2022).
# Tests used:
# Assay type in all cases: in vivo, commercial broiler chicks
# Details in all cases: gut of DOH chicks, n = 12, ± Std Err
# [1] = test system: thermotolerant spores; test: Gut counts of day of hatch chicks: thermotolerant spores on TSA
# Experimental: Guts from chicks treated with either the bacterial formulation of example 3 or formaldehyde were tested for thermotolerant spores, presumptive Lactic Acid Bacteria (LAB) and Gram-negative bacteria.
# Directly prior to chick removal from the hatchers twelve birds per treatment group were removed from the hatcher. Birds were transported (˜1 h) to an appropriate research facility and humanely euthanized by CO2 asphyxiation. Gut packs containing duodenum, ileum, and ceca were aseptically removed and separately homogenized. Gut samples were diluted in sterile saline at a 1:4 wt/vol rate. Ten-fold dilutions were made by placing 200 μl of the sample (N) into the first row of a sterile 96-well plate and sequentially diluting by transferring 20 μl to 180 μl sterile saline to the 10^−7 dilution. The dilutions (N to 10^−7) were plated by 10 μl drop onto both MRS agar and MacConkey's agar. For Trypticase soy agar (TSA) plating, the gut samples were Pasteurized at 80° C. for 10 min before transferring 200 μl into a 96 well plate. The rest of the dilutions and plating methods were the same as the MRS and MacConkey's agar. Agar plates were counted after 24 h of incubation at 37° C.
# [2] = test system: Gram-negative bacteria; test: Gut counts of day of hatch chicks: Gram-negative bacteria on MacConkey's agar
# [3] = test system: presumptive Lactic Acid Bacteria (LAB); test: Gut counts of day of hatch chicks: presumptive LAB on MRS agar
smiles,measurement,setting,value
C=O [Formaldehyde],"thermotolerant spore counts, TSA, Exp 1","[1]; Exp 1, samples not pasteurized",8.95 ± 0.2 Log10 CFU/g
same,"thermotolerant spore counts, TSA, Exp 2","[1]; Exp 2, pasteurized",1.34 ± 0.48 Log10 CFU/g
same,"thermotolerant spore counts, TSA, Exp 3","[1]; Exp 3, pasteurized",0.69 ± 0.36 Log10 CFU/g
same,"thermotolerant spore counts, TSA, Exp 4","[1]; Exp 4, pasteurized",0.44 ± 0.3 Log10 CFU/g
same,"thermotolerant spore counts, TSA, Exp 5","[1]; Exp 5, pasteurized",0 ± 0 Log10 CFU/g
same,"presumptive Gram-negative bacteria counts, MacConkey's agar, Exp 1",[2]; Exp 1,8.39 ± 0.19 Log10 CFU/g
same,"presumptive Gram-negative bacteria counts, MacConkey's agar, Exp 2",[2]; Exp 2,6.56 ± 0.83 Log10 CFU/g
same,"presumptive Gram-negative bacteria counts, MacConkey's agar, Exp 3",[2]; Exp 3,3.9 ± 0.93 Log10 CFU/g
same,"presumptive Gram-negative bacteria counts, MacConkey's agar, Exp 4",[2]; Exp 4,4.95 ± 0.99 Log10 CFU/g
same,"presumptive Gram-negative bacteria counts, MacConkey's agar, Exp 5",[2]; Exp 5,2.84 ± 0.92 Log10 CFU/g
same,"presumptive Lactic Acid bacteria counts, MRS agar, Exp 1",[3]; Exp 1,7.79 ± 0.17 Log10 CFU/g
same,"presumptive Lactic Acid bacteria counts, MRS agar, Exp 2",[3]; Exp 2,7.26 ± 0.34 Log10 CFU/g
same,"presumptive Lactic Acid bacteria counts, MRS agar, Exp 3",[3]; Exp 3,6.26 ± 0.83 Log10 CFU/g
same,"presumptive Lactic Acid bacteria counts, MRS agar, Exp 4",[3]; Exp 4,5.1 ± 0.99 Log10 CFU/g
same,"presumptive Lactic Acid bacteria counts, MRS agar, Exp 5",[3]; Exp 5,2.85 ± 0.96 Log10 CFU/g
